Series [1] addresses T1, recombinant T. brucei GlcNAc-PI de-N-acetylase (GST-TbGPI12) (Trypanosoma brucei, UniProt Q8I8A5). Kind of series: Mass spectrometry based activity assay, recombinant GST-TbGPI12. The series is classed as biochemical. Here is the method:
Inhibition assays were performed in 100 μL final volume, with 1% v/v DMSO with or without inhibitor. […]. Enriched glycolipids were analysed by liquid chromatography coupled to an electrospray tandem mass spectrometer (LC–MS/MS). Samples (40 μL) were injected on to a 10 × 1 mm C18 column (ACE, 5 μM) and eluted using a binary gradient of 5–80% propan-1-ol in 5 mM NH4OAc (Dionex Ultimate 3000). The gradient consisted of 2 min 0% B, 2–4 min 0–100% B, 4–8 min 100%, 8–9 min 100–0% B, 9–10 min 0% B where buffer A consisted of 5% propan-1-ol, 5 mM NH4OAc and buffer B 80% propan-1-ol, 5 mM NH4OAc. The glycolipids were analysed on an electrospray triple quadrapole mass spectrometer (Micromass Quattro Ultima) in multiple reaction monitoring mode. The turnover of the substrate GlcNAc-IPC18 (m/z 715 > 223) to GlcN-IPC18 (m/z 672 > 223) was used to calculate the percentage of substrate conversion to product in a given sample.[6] Inhibitor IC50 values were calculated using a four-parameter fit of eight-point potency curves derived from three independent experiments, and are quoted with standard deviation. […]
Figure 2 T. brucei GlcNAc-PI de-N-acetylase inhibitors. The activity of the recombinant enzyme against the synthetic substrate D-glucosamine-α-(1-6)-D-myo-inositol-1-octadecyl phosphate was measured using a mass spectrometry based assay (A) Fragments were screened at 1 mM in duplicate. […]

The target of series [2] is T1, recombinant T. brucei GlcNAc-PI de-N-acetylase (GST-TbGPI12). Set-up: method as in PMID 22222041. Conditions: previously reported glucocyclitol-phospholipid substrate analogue; cited from earlier work.
For series [3], the target named is T. brucei de-N-acetylase (cell-free system) (Trypanosoma brucei, UniProt Q8I8A5). Kind of series: Mass spectrometry based activity assay, trypanosome cell-free system. The series is classed as biochemical. Conditions: for inhibition at 1000 µM: read-out: Inhibition at 1 mM (%); for ligand efficiency: from IC50 in cell-free system. How it is done:
Inhibition assays were performed in 100 μL final volume, with 1% v/v DMSO with or without inhibitor. […] Enriched glycolipids were analysed by liquid chromatography coupled to an electrospray tandem mass spectrometer (LC–MS/MS). Samples (40 μL) were injected on to a 10 × 1 mm C18 column (ACE, 5 μM) and eluted using a binary gradient of 5–80% propan-1-ol in 5 mM NH4OAc (Dionex Ultimate 3000). The gradient consisted of 2 min 0% B, 2–4 min 0–100% B, 4–8 min 100%, 8–9 min 100–0% B, 9–10 min 0% B where buffer A consisted of 5% propan-1-ol, 5 mM NH4OAc and buffer B 80% propan-1-ol, 5 mM NH4OAc. The glycolipids were analysed on an electrospray triple quadrapole mass spectrometer (Micromass Quattro Ultima) in multiple reaction monitoring mode. […] Inhibitor IC50 values were calculated using a four-parameter fit of eight-point potency curves derived from three independent experiments, and are quoted with standard deviation. […]

Series [4] deals with T. brucei GPI pathway (cell-free system). Nature of the series: Trypanosome cell-free system assay, [3H]-mannose incorporation into GPI intermediates (HPTLC, fluorography). Conditions: GlcNAc-IPC18 10 μM; GDP-[3H]-mannose; tested at 0, 100, 300, 1000 μM.
Description: Trypanosome cell-free system assays, where the formation of GPI precursors is monitored by following the incorporation of [^3H]-mannose were analysed using high-performance liquid chromatography and fluorography as described previously.[13]
Priming the cell-free system with GlcAc-IPC18 in the presence of GDP-[^3H]-mannose stimulates the production of radiolabelled mannosylated GPI intermediates that can be separated by high performance thin-layer chromatography and visualised by fluorography.
(A) The T. brucei cell-free system was incubated with GlcNAc-PI (10 μM) in the presence of 0, 100, 300, or 1000 μM of 1 and 0.5 μCi of GDP-[^3H]-mannose to stimulate the production of radiolabelled mannosylated GPI intermediates. Glycolipid products were extracted, separated by high-performance thin-layer chromatography, and visualised by fluorography. DPM–dolichol-phosphate-mannose, M1–Man1GlcN-IPC18, M2–Man2GlcN-IPC18, M3–Man3GlcN-IPC18, A′–EtNPMan3GlcN-IPC18. (B) Inhibition of the turnover of GlcNAc-IPC18 (10 μM) by the presence of 1 measured in the T. brucei cell-free system in the LC–MS/MS assay.
For series [5], the system named is bloodstream form T. brucei. Set-up: method as in PMID 986688, PMID 17126803. Conditions: cited from earlier work.
Where [6] appears, read: 1 mM, cell-free system, Table 1, commercially available analogues of 1.
[7] abbreviates: 1 mM, fragment library screen, Table S1, footnote: cell-free system.

Like-named read-outs stand apart in the source and are kept apart here.

Chain of T. brucei de-N-acetylase (cell-free system) (Q8I8A5 entry or part of it): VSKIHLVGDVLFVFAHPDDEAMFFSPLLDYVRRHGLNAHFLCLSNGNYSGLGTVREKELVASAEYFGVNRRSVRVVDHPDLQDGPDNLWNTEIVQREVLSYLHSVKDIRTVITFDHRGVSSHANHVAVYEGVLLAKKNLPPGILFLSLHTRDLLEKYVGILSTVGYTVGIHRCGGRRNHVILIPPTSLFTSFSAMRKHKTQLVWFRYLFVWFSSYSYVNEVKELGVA
T1 sequence (Q8I8A5 entry or part of it): as above

Consider `CCCCCCCCCCCCCCCCCCOP(=O)(O)O[C@@H]1CCCC[C@H]1O[C@@H]1O[C@H](CO)[C@@H](O)[C@H](O)[C@H]1CC(=O)NO` [1R,2R-1-O-[2-C-(carboxymethyl N-hydroxyamide)-2-deoxy-β-D-glucopyranosyl]-cyclohexanediol 2-(n-octadecylphosphate), reference compound], for which the ligand efficiency in series [1] (from the previously reported IC50 of ref 13) is −0.13 kcal mol^−1 per non-hydrogen atom. Also, in series [2], the IC50 (in general, the concentration that inhibits the measured activity by half) was 19 ± 0.5 µM.

As to `O=C(NO)c1ccccc1O` [compound 1, salicylic hydroxamic acid], the inhibition (commonly the drop in the measured response relative to a control, in per cent) at 1000 µM in series [3] was found to be 97 ± 2%. The IC50 in series [1] was determined as 63 ± 4 µM. Besides, the “concentration that prevented priming of the cell-free system with GlcNAc-IPC18” value in series [4] is above 300 µM. Moreover, the “toxicity in vivo to bloodstream form T. brucei” value in series [5] is listed as “toxic in vivo”.

For the compound `O=C(O)c1ccccc1O` [compound 2], the inhibition at 1000 µM in series [3] turned out to be 25 ± 1%.

As to `O=C(NO)c1ccccc1` [compound 3], the inhibition at 1000 µM in series [3] (setting [6]) was -6 ± 14%.

Take `O=C(NO)c1ccccc1Br` [compound 4]: the inhibition at 1000 µM in series [3] (setting [6]) is -4 ± 15%.

In the case of `Nc1ccccc1C(=O)NO` [compound 5], in series [3] (setting [6]), the inhibition at 1000 µM is -5 ± 2%.

`O=C(NO)c1ccc(Br)cc1O` [compound 6]: in series [3] (setting [6]), the inhibition at 1000 µM turned out to be 86 ± 2%.

Regarding `O=C(NO)c1ccc(Br)cc1` [compound 7], the inhibition at 1000 µM in series [3] (setting [6]) was 9.6 ± 15%.

Take `O=C(NO)c1cc(NC(=O)C2CCCCC2)ccc1O` [compound 20, 5-(Cyclohexanecarboxamido)-N,2-dihydroxybenzamide]: the melting point (commonly the temperature of the solid-liquid transition) is 229 to 230 °C. In addition, in series [3], the ligand efficiency is −0.30 kcal mol^−1 per non-hydrogen atom and the inhibition at 1000 µM is 99 ± 1.6%.

On to `O=C(Nc1ccc(O)c(C(=O)NO)c1)c1ccccc1` [compound 21, 5-Benzamido-N,2-dihydroxybenzamide], for which the melting point was 211 °C. In addition, in series [3], the ligand efficiency is on record as −0.29 kcal mol^−1 per non-hydrogen atom and the inhibition at 1000 µM was found to be 96 ± 0.4%.

`Cc1ccc(C(=O)Nc2ccc(O)c(C(=O)NO)c2)cc1` [compound 22, N,2-Dihydroxy-5-(4-methylbenzamido)benzamide] came in with a melting point of 209 °C. For the same compound, the inhibition at 1000 µM in series [3] was 62 ± 24%.

Compound `CCCCCCCCCCCCCCCCCC(=O)Nc1ccc(O)c(C(=O)NO)c1` [compound 23, N,2-Dihydroxy-5-stearamidobenzamide] had a melting point of 185 to 187 °C. Moreover, the inhibition at 1000 µM in series [3] is 25 ± 14%.

The compound `CC(=O)N1CCC(C(=O)Nc2ccc(O)c(C(=O)NO)c2)CC1` [compound 24, 1-Acetyl-N-(4-hydroxy-3-(hydroxycarbamoyl)phenyl)piperidine-4-carboxamide] displayed a melting point of 211 to 212 °C. Also, in series [3], the inhibition at 1000 µM was determined as 40 ± 17%.

With `O=C(Nc1ccc(O)c(C(=O)NO)c1)c1ccc(-c2ccccc2)cc1` [compound 25, N-(4-Hydroxy-3-(hydroxycarbamoyl)phenyl)-[1,1'-biphenyl]-4-carboxamide], the melting point turned out to be 216 °C. Also, the inhibition at 1000 µM in series [3] came to 75 ± 7%.

Compound `O=C(NO)c1cc(NC(=O)C2CCOCC2)ccc1O` [compound 26, N-(4-Hydroxy-3-(hydroxycarbamoyl)phenyl)tetrahydro-2H-pyran-4-carboxamide] had a melting point of 209 °C. Besides, the inhibition at 1000 µM in series [3] amounted to 56 ± 8.3%.

In turn, `O=C(Nc1ccc(O)c(C(=O)NO)c1)c1ccc2c(c1)OCO2` [compound 27, N-(4-Hydroxy-3-(hydroxycarbamoyl)phenyl)benzo[d][1,3]dioxole-5-carboxamide] yielded a melting point of 209 °C. Moreover, the inhibition at 1000 µM in series [3] came out at 86 ± 11%.

As to `COc1ccc(NC(=O)NO)cc1` [compound 503], the inhibition at 1000 µM in series [3] (setting [7]) stood at 53 ± 2%.

As for `O=C(CCCOc1ccc(Cl)cc1Cl)NO` [compound 508], the inhibition at 1000 µM in series [3] (setting [7]) was 67 ± 20%.

In the case of `O=C(COc1ccc(Cl)cc1Cl)NO` [compound 509], in series [3], the inhibition at 1000 µM was 62 ± 0.3%.

Turning to `O=C(NO)C1CCN(c2ncc(C(F)(F)F)cc2Cl)CC1` [compound 513], the inhibition at 1000 µM in series [3] (setting [7]) is 54 ± 4%.

For the compound `O=C(CCc1nc(-c2ccc(Cl)cc2)no1)NO` [compound 514], in series [3] (setting [7]), the inhibition at 1000 µM came out at 54 ± 9%.
